Read-outs that look alike come from different tables or passages of the source.
Legend:
EZH2 enzyme complex = EZH2 enzyme complex (Homo sapiens (Human), UniProt Q15910); test: Test on EZH2 inhibitory activity (TR-FRET); format: biochemical; conditions: EZH2 enzyme complex 25 ng/uL, histone H3 peptide 4 uM, SAM 2 uM, 300 min; read-out: IC50 of EZH2 inhibition
WSU-DLCL2 = test: Methylated lysine of histone-H3 (H3K27Me3) detection by ELISA, WSU-DLCL2 cells; format: cell-based; conditions: WSU-DLCL2, 7 days treatment, H3K27Me3 normalized to total histone-3, read-out: IC50 of cell methylation, WSU-DLCL2
Outline: (§1)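 Cells were treated 7 days with compound (4-fold dilutions, 20 uM-0.009 nM), then lysed hypotonically with NaCl adjusted to ~100 mM. Lysate-coated plates were probed by ELISA for H3K27Me3 and total H3 (TMB, A450). Methylation signal was normalised to total H3 before curve fitting.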

Pfeiffer = test: Methylated lysine of histone-H3 (H3K27Me3) detection by ELISA, Pfeiffer cells; format: cell-based, human; conditions: 7 days treatment, H3K27Me3 normalized to total histone-3, read-out: IC50 of cell methylation, Pfeiffer
Outline: as §1

Chain of EZH2 enzyme complex (Q15910 whole entry): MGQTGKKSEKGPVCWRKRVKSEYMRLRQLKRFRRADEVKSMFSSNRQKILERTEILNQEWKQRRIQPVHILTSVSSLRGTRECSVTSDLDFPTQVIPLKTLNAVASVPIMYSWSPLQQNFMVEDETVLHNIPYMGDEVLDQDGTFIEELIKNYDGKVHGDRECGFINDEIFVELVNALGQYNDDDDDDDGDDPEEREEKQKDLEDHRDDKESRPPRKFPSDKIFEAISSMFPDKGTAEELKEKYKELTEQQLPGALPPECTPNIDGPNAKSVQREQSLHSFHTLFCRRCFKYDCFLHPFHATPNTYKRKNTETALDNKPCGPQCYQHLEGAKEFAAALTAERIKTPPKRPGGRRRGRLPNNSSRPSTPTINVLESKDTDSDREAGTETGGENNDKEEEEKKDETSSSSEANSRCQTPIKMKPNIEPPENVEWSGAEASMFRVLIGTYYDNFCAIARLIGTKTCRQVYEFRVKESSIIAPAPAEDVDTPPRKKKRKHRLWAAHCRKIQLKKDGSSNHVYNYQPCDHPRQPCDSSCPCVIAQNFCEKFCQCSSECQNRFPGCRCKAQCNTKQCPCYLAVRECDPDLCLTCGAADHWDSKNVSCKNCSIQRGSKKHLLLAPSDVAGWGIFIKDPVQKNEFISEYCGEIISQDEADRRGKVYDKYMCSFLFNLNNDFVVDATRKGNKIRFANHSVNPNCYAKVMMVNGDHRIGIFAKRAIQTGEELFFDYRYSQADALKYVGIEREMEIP
Chain of EZH2 enzyme complex (O75530 whole entry partner): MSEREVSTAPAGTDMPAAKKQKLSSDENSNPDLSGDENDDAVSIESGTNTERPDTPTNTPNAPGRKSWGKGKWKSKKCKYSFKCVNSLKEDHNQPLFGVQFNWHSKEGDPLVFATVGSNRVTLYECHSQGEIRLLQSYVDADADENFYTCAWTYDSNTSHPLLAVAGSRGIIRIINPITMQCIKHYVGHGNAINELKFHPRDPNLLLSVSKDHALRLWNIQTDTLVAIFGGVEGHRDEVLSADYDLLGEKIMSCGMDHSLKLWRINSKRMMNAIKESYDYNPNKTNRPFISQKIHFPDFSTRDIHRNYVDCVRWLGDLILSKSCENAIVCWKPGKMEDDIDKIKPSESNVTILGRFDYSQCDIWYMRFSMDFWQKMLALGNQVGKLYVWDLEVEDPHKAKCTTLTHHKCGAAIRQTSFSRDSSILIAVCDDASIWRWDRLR
Chain of EZH2 enzyme complex (Q15022 whole entry partner): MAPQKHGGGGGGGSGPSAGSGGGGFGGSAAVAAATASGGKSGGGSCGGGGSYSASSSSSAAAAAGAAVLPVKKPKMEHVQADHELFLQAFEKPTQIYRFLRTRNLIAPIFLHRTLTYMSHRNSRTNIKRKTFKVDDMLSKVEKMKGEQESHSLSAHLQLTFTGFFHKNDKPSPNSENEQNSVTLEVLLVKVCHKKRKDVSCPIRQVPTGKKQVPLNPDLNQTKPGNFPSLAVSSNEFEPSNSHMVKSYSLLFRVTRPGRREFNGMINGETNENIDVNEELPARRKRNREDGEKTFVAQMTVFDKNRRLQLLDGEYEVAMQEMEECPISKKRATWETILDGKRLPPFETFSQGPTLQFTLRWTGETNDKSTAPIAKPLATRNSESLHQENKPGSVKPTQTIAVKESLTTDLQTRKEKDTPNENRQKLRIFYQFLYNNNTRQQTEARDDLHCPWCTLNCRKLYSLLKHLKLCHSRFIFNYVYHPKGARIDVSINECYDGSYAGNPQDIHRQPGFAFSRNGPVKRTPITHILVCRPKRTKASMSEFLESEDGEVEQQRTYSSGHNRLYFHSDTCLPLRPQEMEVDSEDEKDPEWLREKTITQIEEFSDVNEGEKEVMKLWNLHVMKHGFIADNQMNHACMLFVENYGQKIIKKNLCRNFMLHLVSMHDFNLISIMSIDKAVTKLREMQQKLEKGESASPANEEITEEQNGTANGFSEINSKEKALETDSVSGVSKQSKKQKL

Row | SMILES | IC50 (EZH2 enzyme complex) [nM] | IC50 (WSU-DLCL2; Homo sapiens, WSUDLCL2, 168 h) [nM] | IC50 (Pfeiffer; Homo sapiens, 168 h) [nM] | IC50 (WSU-DLCL2) [nM] | IC50 (Pfeiffer) [nM]
1 | CCN(c1cc(O[C@H]2C[C@H](N3C[C@@H](C)O[C@@H](C)C3)C2)cc(C(=O)NCc2c(C)cc(C)[nH]c2=O)c1Cl)C1CCOCC1 [Example 48, 2-chloro-N-((4,6-dimethyl-2-oxo-1,2-dihydropyridin-3-yl)methyl)-5-(trans-3-(cis-2,6-dimethylmorpholinyl)cyclobutoxy)-3-(ethyl(tetrahydro-2H-pyran-4-yl)amino)benzamide] | 10 to 100 | 50 to 500 | > 1000 | – | –
2 | CCN(c1cc(O[C@H]2C[C@H](N3CC4CCC(C3)O4)C2)cc(C(=O)NCc2c(C)cc(C)[nH]c2=O)c1Cl)C1CCOCC1 [Example 49, 5-(trans-3-(8-oxa-3-azabicyclo[3.2.1]octan-3-yl)cyclobutoxy)-2-chloro-N-((4,6-dimethyl-2-oxo-1,2-dihydropyridin-3-yl)methyl)-3-(ethyl(tetrahydro-2H-pyran-4-yl)amino)benzamide] | 10 to 100 | 50 to 500 | > 1000 | – | –
3 | CCN(c1cc(O[C@H]2C[C@H](N3CCOCC3)C2)cc(C(=O)N(C)Cc2c(C)cc(C)[nH]c2=O)c1C)C1CCOCC1 [Example 51, N-((4,6-dimethyl-2-oxo-1,2-dihydropyridin-3-yl)methyl)-3-(ethyl(tetrahydro-2H-pyran-4-yl)amino)-N,2-dimethyl-5-(trans-3-morpholinylcyclobutoxy)benzamide] | 100 to 1000 | > 1000 | > 1000 | – | –
4 | CCN(c1cc(O[C@H]2C[C@H](CN3C[C@@H](C)O[C@@H](C)C3)C2)cc(C(=O)NCc2c(C)cc(C)[nH]c2=O)c1Cl)C1CCOCC1 [Example 53, 2-chloro-N-((4,6-dimethyl-2-oxo-1,2-dihydropyridin-3-yl)methyl)-5-(trans-3-((cis-2,6-dimethylmorpholinyl)methyl)cyclobutoxy)-3-(ethyl(tetrahydro-2H-pyran-4-yl)amino)benzamide] | 10 to 100 | – | – | 50 to 500 | 500 to 1000
5 | CCN(c1cc(O[C@H]2C[C@@H](N3CCC(C)CC3)C2)cc(C(=O)NCc2c(C)cc(C)[nH]c2=O)c1C)C1CCOCC1 [Example 56, N-((4,6-dimethyl-2-oxo-1,2-dihydropyridin-3-yl)methyl)-3-(ethyl(tetrahydro-2H-pyran-4-yl)amino)-2-methyl-5-(cis-3-(4-methylpiperidin-1-yl)cyclobutoxy)benzamide] | 10 to 100 | 50 to 500 | 50 to 500 | – | –
6 | Cc1cc(C)c(CNC(=O)c2cc(O[C@H]3C[C@H](N4C[C@@H](C)O[C@@H](C)C4)C3)cc(NC3CCOCC3)c2C)c(=O)[nH]1 [Example 57, N-((4,6-dimethyl-2-oxo-1,2-dihydropyridin-3-yl)methyl)-5-(trans-3-(cis-2,6-dimethylmorpholino)cyclobutoxy)-2-methyl-3-((tetrahydro-2H-pyran-4-yl)amino)benzamide] | > 1000 | > 1000 | > 1000 | – | –
7 | Cc1cc(C)c(CNC(=O)c2cc(O[C@H]3C[C@H](N4C[C@@H](C)O[C@@H](C)C4)C3)cc(NC3CCOC3)c2C)c(=O)[nH]1 (stereo partly drawn) [Example 58, N-((4,6-dimethyl-2-oxo-1,2-dihydropyridin-3-yl)methyl)-5-(trans-3-(cis-2,6-dimethylmorpholino)cyclobutoxy)-2-methyl-3-((tetrahydrofuran-3-yl)amino)benzamide] | > 1000 | > 1000 | > 1000 | – | –
8 | CCN(c1cc(C2CC2CO)cc(C(=O)NCc2c(C)cc(C)[nH]c2=O)c1C)C1CCOCC1 (stereo not drawn) [Example 71, N-((4,6-dimethyl-2-oxo-1,2-dihydropyridin-3-yl)methyl)-3-(ethyl(tetrahydro-2H-pyran-4-yl)amino)-5-(2-(hydroxymethyl)cyclopropyl)-2-methylbenzamide] | 10 to 100 | 50 to 500 | < 50 | – | –
